In patent US20190246646A1 (priority 2016, published 2019):

Assays:
M. oryzae BOA102 [1] = conditions: for mycelium color / phenotype of the fungal colony: BOA102 exposed to single commercial compound, dual plate; for mycelium growth measured as colony diameter: Student T-test p<0.05
M. oryzae mycelium = conditions: compound added to fungal growth media; untreated black; cited from earlier work
M. oryzae BOA102 [2] = conditions: grown in the presence of Tricyclazole

Row | SMILES | mycelium color / phenotype of the fungal colony (M. oryzae BOA102 [1]) | mycelium growth measured as colony diameter (M. oryzae BOA102 [1]) | pigmentation of M. oryzae mycelium (M. oryzae mycelium) | color of the mycelium (DHN melanin inhibition phenotype) (M. oryzae BOA102 [2])
1 | CC(=O)OCCC(C)C [1-butanol-3-methyl-acetate] | do not induce appreciable phenotype/color variations | significant reduction | – | –
2 | CC(C)CCO [1-butanol-3-methyl] | shift from black to white | significant reduction | – | –
3 | CC(C)CO [1-propanol-2-methyl] | do not induce appreciable phenotype/color variations | significant reduction | – | –
4 | Cc1ccc(C(=O)NC[C@@H](NC(=O)OCC(F)(F)F)C(C)C)cc1 [Tolprocab] | – | – | white | –
5 | Cc1cccc2sc3nncn3c12 [Tricyclazole] | – | – | orange | orange color
6 | CCO [ethanol] | do not induce appreciable phenotype/color variations | No effect | – | –
